Data reported in ChEMBL document CHEMBL4257539, “Identification of potent catalytic inhibitors of human DNA topoisomerase II by structure-based virtual screening” (Medchemcomm, 2018).
Calls of active or inactive are those of the source. The calls are words filed in the database; no cut-off is given here.

What was measured:
HCT-116 [1] = system: HCT-116
Description: (§1) Antiproliferative activity against human HCT116 cells after 72 hrs by MTT assay

A549 [2] = system: A549
Description: (§2) Antiproliferative activity against human A549 cells after 72 hrs by MTT assay

ZR-75-30 = experiment: Antiproliferative activity against human ZR-7530 cells after 72 hrs by MTT assay; type: functional, cell-based
A549 [3] = experiment: cells; details: Homo sapiens, A549, 72 h
Description: as §2

HCT-116 [4] = experiment: cells; details: Homo sapiens, HCT-116, 72 h
Description: as §1

Homo sapiens [5] = organism: Homo sapiens; experiment: Inhibition of human topoisomerase-2 assessed as reduction in relaxation of supercoiled pBR322 DNA at 100 uM after 30 mins by ethidium bromide staining based agarose gel electrophoresis method
[6] = Inhibition of human topoisomerase-2 assessed as reduction in relaxation of supercoiled pBR322 DNA after 30 mins by ethidium bromide staining based agarose gel electrophoresis method
Homo sapiens [7] = organism: Homo sapiens; experiment: Inhibition of human topoisomerase-2 assessed as reduction in relaxation of supercoiled pBR322 DNA at 50 uM after 30 mins by ethidium bromide staining based agarose gel electrophoresis method
[8] = Homo sapiens, ZR-75-30, 72 h, read-out: IC50

SMILES	IC50 (HCT-116 [1])	IC50 (A549 [2])	IC50 (ZR-75-30; zr-75-30)	IC50 (A549 [3]) [µM]	IC50 (HCT-116 [4]) [µM]	inhibition (Homo sapiens [5])	IC50 (ZR-75-30; [8]) [µM]	IC50 [6] [µM]	inhibition (Homo sapiens [7])
NS(=O)(=O)c1ccc(NC(=O)CSc2nnc3ccc4ccccc4n23)cc1	Not Active	Not Active	Not Active						
COc1ccc(-c2cc(-c3ccccc3)c(C#N)c(SCC(=O)O)n2)cc1				37	10	Active	14		
C=CCn1c(CN2c3ccccc3Sc3ccccc32)nnc1SCC(=O)O		Not Active			32		15		
O=C(O)c1ccc2c(c1)C(=O)N(c1ccc(C(=O)OCC(=O)c3ccccc3)cc1)C2=O	Not Active	Not Active	Not Active			Active			
COc1cc([C@@H]2c3cc4c(cc3[C@@H](O[C@@H]3O[C@@H]5CO[C@@H](C)O[C@H]5[C@H](O)[C@H]3O)[C@H]3COC(=O)[C@H]23)OCO4)cc(OC)c1O [ETOPOSIDE]				68	1.1	Active	1.5	184	inactive
N#Cc1c(-c2ccc(F)cc2)cc(-c2ccccc2)nc1SCC(=O)NCC(=O)O	Not Active	Not Active	Not Active			Active			
COc1ccc(C(=O)Cn2c(=N)n(Cc3ccc(C)cc3)c3ccccc32)cc1				1.2	1	Active	1.2		
O=C(O)COc1ccc(/C=N/n2c(COc3ccccc3)nc3ccccc3c2=O)cc1		Not Active			54	Active	58		
CC(C)(O)C#Cc1cc(C(=O)NCCc2ccc(S(N)(=O)=O)cc2)c2oc(C(C)(C)O)cc2c1	Not Active	Not Active				Active	62	349	
O=C(O)CCSc1nnc(-c2cccnc2)n1CCc1ccccc1	Not Active	Not Active	Not Active						
Cc1cc(C(=O)O)ccc1-c1ccc(/C=c2/sc3nc4ccccc4n3c2=O)o1	Not Active	Not Active	Not Active			Active		41	
O=C(O)CCc1nn2c3ccccc3n(Cc3ccccc3)c2nc1=O	Not Active	Not Active	Not Active			Active			
